AC50 data for 16 compounds are collected here from ChEMBL document CHEMBL5291721, “A preclinical secondary pharmacology resource illuminates target-adverse drug reaction associations of marketed drugs” (Nat Commun, 2023).

In assay [1] the target is T1, Glucocorticoid receptor (Homo sapiens, UniProt P04150).
T1 sequence (P04150 whole entry): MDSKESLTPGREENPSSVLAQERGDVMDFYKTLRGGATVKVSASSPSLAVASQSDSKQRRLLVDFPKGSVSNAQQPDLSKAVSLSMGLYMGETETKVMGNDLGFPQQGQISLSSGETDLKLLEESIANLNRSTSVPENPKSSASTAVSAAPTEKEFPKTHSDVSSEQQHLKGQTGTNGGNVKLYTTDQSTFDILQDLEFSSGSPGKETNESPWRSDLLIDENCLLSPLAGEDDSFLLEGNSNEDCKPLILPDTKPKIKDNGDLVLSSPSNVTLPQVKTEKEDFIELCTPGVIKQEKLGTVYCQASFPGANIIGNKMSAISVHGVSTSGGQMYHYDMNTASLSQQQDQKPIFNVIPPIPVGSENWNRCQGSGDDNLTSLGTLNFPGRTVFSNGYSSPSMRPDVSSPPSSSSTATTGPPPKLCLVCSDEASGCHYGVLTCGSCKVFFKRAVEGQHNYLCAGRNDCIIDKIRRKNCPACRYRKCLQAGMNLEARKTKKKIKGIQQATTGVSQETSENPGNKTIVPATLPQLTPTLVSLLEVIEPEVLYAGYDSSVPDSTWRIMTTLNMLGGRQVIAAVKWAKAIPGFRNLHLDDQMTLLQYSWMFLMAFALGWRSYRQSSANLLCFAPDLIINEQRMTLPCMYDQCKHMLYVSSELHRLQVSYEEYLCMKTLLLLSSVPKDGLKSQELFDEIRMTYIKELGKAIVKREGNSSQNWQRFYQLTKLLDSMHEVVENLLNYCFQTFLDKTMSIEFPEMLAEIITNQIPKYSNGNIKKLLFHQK

The target in assay [2] is Vasopressin V2 receptor (Homo sapiens, UniProt P30518).
Vasopressin V2 receptor, sequence (P30518 whole entry): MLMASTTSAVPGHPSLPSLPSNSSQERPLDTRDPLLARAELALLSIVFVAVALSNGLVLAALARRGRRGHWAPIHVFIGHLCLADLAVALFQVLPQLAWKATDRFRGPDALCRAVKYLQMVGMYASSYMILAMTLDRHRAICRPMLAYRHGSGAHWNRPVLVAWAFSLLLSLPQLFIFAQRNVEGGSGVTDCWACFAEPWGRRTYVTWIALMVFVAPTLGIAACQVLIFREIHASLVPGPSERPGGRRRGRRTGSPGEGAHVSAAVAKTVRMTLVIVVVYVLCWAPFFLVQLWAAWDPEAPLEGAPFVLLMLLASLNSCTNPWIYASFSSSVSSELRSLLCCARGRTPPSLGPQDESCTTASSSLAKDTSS
For assay [3], the target named is T2, B2 bradykinin receptor (Homo sapiens, UniProt P30411).
T2 sequence (P30411 whole entry): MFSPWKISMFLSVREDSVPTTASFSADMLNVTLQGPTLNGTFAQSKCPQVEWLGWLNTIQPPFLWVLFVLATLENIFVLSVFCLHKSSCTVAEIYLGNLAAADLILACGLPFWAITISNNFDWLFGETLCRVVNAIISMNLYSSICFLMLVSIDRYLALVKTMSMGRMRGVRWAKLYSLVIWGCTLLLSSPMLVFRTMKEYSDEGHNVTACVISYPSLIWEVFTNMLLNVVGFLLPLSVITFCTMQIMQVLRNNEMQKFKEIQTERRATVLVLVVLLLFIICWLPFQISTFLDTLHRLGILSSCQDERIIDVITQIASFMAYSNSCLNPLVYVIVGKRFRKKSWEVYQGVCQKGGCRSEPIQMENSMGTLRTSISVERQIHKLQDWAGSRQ

For assay [4], the target named is T3, Alpha-1A adrenergic receptor (Homo sapiens, UniProt P35348).
T3 sequence (P35348 whole entry): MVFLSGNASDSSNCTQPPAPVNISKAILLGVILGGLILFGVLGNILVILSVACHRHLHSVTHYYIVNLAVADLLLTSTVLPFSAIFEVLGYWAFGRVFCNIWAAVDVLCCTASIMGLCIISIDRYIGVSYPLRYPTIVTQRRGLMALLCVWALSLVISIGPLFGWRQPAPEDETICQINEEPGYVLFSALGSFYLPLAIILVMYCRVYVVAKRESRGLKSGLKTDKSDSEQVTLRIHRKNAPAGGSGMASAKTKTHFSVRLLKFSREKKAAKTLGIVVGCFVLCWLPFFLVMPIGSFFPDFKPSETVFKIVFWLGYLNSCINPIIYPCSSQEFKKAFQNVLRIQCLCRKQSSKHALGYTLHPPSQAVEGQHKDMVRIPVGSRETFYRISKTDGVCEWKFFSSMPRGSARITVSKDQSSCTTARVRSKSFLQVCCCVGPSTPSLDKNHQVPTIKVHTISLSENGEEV
Format: functional, cell-based.

In assay [5] the target is Sodium-dependent serotonin transporter (Homo sapiens, UniProt P31645).
Sodium-dependent serotonin transporter, sequence (P31645 whole entry): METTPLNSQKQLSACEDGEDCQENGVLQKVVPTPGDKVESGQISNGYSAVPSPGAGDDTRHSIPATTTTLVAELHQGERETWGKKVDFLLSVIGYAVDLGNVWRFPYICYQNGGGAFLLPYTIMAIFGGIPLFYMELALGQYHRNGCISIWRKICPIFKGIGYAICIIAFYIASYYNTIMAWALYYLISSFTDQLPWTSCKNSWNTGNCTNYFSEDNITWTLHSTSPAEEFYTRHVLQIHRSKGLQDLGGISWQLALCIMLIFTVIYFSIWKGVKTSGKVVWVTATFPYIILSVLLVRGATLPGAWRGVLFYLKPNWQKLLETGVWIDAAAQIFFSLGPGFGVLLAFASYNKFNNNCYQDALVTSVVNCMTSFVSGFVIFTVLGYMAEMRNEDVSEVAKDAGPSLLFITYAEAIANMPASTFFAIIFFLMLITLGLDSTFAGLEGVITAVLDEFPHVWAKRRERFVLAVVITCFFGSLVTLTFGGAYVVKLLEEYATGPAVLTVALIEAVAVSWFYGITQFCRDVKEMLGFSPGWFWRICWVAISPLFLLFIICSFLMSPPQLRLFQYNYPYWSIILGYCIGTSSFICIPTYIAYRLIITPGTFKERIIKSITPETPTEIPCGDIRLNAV
The target in assay [6] is Beta-2 adrenergic receptor (Homo sapiens, UniProt P07550).
Beta-2 adrenergic receptor, sequence (P07550 whole entry): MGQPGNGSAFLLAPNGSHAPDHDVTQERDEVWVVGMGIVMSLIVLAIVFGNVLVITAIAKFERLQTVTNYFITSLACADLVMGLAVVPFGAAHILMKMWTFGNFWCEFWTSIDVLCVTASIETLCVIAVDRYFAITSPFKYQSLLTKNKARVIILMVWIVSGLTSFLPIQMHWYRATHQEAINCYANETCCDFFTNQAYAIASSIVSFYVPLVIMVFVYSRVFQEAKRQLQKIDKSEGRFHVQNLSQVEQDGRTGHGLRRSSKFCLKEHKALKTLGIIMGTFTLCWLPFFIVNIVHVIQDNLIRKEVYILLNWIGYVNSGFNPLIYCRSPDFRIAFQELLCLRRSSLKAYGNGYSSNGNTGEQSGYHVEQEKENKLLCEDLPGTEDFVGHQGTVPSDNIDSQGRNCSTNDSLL
Assay [7] deals with Mu-type opioid receptor (Homo sapiens, UniProt P35372).
Mu-type opioid receptor, sequence (P35372 whole entry): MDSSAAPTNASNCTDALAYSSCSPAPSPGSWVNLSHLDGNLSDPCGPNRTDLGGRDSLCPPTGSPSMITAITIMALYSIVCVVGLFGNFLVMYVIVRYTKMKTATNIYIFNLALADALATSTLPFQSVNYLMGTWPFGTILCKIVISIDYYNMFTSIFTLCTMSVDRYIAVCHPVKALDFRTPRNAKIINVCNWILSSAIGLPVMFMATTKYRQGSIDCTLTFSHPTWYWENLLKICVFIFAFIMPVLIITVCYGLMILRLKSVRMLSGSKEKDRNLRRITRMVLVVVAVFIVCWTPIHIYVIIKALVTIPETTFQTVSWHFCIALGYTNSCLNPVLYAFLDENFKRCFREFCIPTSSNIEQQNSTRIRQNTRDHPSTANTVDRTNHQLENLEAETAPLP
The target in assay [8] is D(1A) dopamine receptor (Homo sapiens, UniProt P21728).
D(1A) dopamine receptor, sequence (P21728 whole entry): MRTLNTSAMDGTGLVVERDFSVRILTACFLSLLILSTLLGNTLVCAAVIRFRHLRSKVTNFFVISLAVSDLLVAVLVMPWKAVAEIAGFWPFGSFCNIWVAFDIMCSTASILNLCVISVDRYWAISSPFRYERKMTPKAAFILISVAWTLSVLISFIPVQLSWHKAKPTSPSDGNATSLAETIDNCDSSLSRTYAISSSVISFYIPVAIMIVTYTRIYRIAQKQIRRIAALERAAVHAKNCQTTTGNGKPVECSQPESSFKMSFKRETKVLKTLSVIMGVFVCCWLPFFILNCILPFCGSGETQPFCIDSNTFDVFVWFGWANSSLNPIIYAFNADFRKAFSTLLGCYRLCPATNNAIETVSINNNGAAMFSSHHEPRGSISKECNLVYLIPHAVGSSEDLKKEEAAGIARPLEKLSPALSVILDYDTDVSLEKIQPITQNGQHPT
Note: assay procedure not described here.

For orientation: AC50 means the concentration at which the activity in the assay is half-maximal. With `CCCCN1C[C@H](O)[C@@H](O)[C@H](O)[C@H]1CO`, the concentration at half-maximal activity (AC50) in assay [1], in assay [2], in assay [3], in assay [4], in assay [5] and in assay [6] was above 30 µM throughout.
In the case of `CC(=O)NCCCS(=O)(=O)O` [ACAMPROSATE], the half-maximal activity concentration (AC50) in assay [1], in assay [2], in assay [3], in assay [4] and in assay [5] was above 30 µM each time.
On to `CCCSc1ccc2nc(NC(=O)OC)[nH]c2c1` [ALBENDAZOLE], for which the AC50 is above 10 µM in assay [1]; above 10 µM in assay [2]; above 10 µM in assay [3]; above 30 µM in assay [7]; above 30 µM in assay [6].
As to `COc1cc2nc(N(C)CCCNC(=O)C3CCCO3)nc(N)c2cc1OC` (stereo not given) [ALFUZOSIN], the AC50 in assay [1], in assay [2], in assay [3], in assay [5] and in assay [6] was above 30 µM each time.
For the compound `CC1=C(C(=O)O)N2C(=O)[C@@H](NC(=O)[C@H](N)c3ccccc3)[C@H]2SC1` [CEPHALEXIN ANHYDROUS], the AC50 is above 30 µM in assay [1]; above 30 µM in assay [2]; above 30 µM in assay [3]; above 30 µM in assay [4]; above 10 µM in assay [6].
As for `CN(C)/N=N/c1[nH]cnc1C(N)=O` [DACARBAZINE], the AC50 in assay [1] is above 10 µM; in assay [2] it was above 10 µM; in assay [3], above 10 µM; in assay [7], above 30 µM; in assay [6] it was above 10 µM.
`C[C@]12CC[C@@H]3c4ccc(O)cc4CC[C@H]3[C@@H]1C[C@@H](O)[C@@H]2O` [ESTRIOL] gave an AC50 in assay [8] above 30 µM.
For `O=P1(NCCCl)OCCCN1CCCl` (stereo not given) [IFOSFAMIDE], the AC50 in assay [1], in assay [2], in assay [3] and in assay [6] was above 30 µM in each case.
Regarding `CCC(C)n1ncn(-c2ccc(N3CCN(c4ccc(OCC5COC(Cn6cncn6)(c6ccc(Cl)cc6Cl)O5)cc4)CC3)cc2)c1=O` (stereo not given) [ITRACONAZOLE], the AC50 in assay [2] was above 30 µM; in assay [3], above 30 µM; in assay [4], above 30 µM; in assay [7] it was above 10 µM; in assay [6], above 30 µM.
Turning to `Cc1cccc(Nc2ccccc2C(=O)O)c1C` [MEFENAMIC ACID], the AC50 in assay [1] is above 10 µM; in assay [2], above 10 µM; in assay [3], above 10 µM; in assay [7], above 30 µM; in assay [8], above 30 µM; in assay [6], above 10 µM.
As to `Clc1ccc(C(c2ccccc2Cl)C(Cl)Cl)cc1` (stereo not given) [MITOTANE], the AC50 was 1.4 µM in assay [1]; above 10 µM in assay [2]; above 10 µM in assay [3]; above 30 µM in assay [7]; above 10 µM in assay [6].
In assay [8], `CC(C)(S)[C@@H](N)C(=O)O` [PENICILLAMINE] registered a half-maximal activity concentration (AC50) above 30 µM.
In the case of `COc1ccccc1OCC(O)CN1CCN(CC(=O)Nc2c(C)cccc2C)CC1` (stereo not given) [RANOLAZINE], the AC50 is above 30 µM in assay [1]; above 30 µM in assay [2]; above 30 µM in assay [3]; 1.7 µM in assay [4]; above 30 µM in assay [5]; 5.7 µM in assay [6].
Take `Cc1cn([C@H]2C=C[C@@H](CO)O2)c(=O)[nH]c1=O` [STAVUDINE]: the AC50 is above 30 µM in assay [2]; above 30 µM in assay [3]; above 30 µM in assay [4]; above 30 µM in assay [7]; above 30 µM in assay [8]; above 10 µM in assay [6].
For the compound `Clc1ccc2nsnc2c1NC1=NCCN1` [TIZANIDINE], the AC50 was above 30 µM in assay [1]; above 30 µM in assay [2]; above 30 µM in assay [3]; above 30 µM in assay [7]; above 10 µM in assay [6].
Consider `O=C(O[C@H]1C[C@H]2CC[C@@H](C1)[N+]21CCCC1)C(O)(c1ccccc1)c1ccccc1` [TROSPIUM], for which the AC50 in assay [2], in assay [3], in assay [4], in assay [5] and in assay [6] was above 30 µM in each case.
